Counter-ions that a name gives are not always drawn.
Assays:
[1] = biological target: T1, 5-HT1F receptor (Homo sapiens, UniProt P30939); experiment: cell-based; design: species or system CHO-K1; cAMP HTRF agonist assay, Gi coupled receptors, inhibition of stimulated cAMP; conditions: cAMP
T1 construct: gene HTR1F; full-length human recombinant receptor in CHO-K1 cells (Ogeda)
T1 sequence (P30939 1-366): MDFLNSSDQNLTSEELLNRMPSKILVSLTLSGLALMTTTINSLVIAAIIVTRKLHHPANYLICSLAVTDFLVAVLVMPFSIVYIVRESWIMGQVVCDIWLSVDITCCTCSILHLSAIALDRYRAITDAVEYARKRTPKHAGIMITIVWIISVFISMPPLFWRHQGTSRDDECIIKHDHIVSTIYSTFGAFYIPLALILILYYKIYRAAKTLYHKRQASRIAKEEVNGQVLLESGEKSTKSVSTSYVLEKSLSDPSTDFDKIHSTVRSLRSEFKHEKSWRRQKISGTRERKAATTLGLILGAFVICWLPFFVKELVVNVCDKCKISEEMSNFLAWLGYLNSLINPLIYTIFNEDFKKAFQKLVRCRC
Description: Concentration–response curves were performed in parallel with the agonists. For agonist tests, 12 μl of cells were mixed with 6 μl of the test compound (at increasing concentrations) and 6 μl of https://www.guidetopharmacology.org/GRAC/LigandDisplayForward?ligandId=5190 and then incubated for 30 min at room temperature. After addition of the lysis buffer and 1‐hr incubation, cAMP concentrations were estimated according to the manufacturer specification with the HTRF kit (Cisbio International, Codelet, France). In brief, increasing concentrations of agonists were added to stably transfected cells in buffer in an Optiplate (PerkinElmer Life Sciences, Massachusetts, USA). The plates were incubated, and cells were then lysed by the addition of HTRF reagents (cAMP‐Cryptate and anti‐cAMP‐d2 reagents) and diluted in lysis buffer, followed by incubation at room temperature. As 5‐HT1B receptors have been reported in naïve CHO‐K1 cells (George, Bungay, & Naylor, 1997), we also tested https://www.guidetopharmacology.org/GRAC/LigandDisplayForward?ligandId=4 (5‐CT, the reference agonist for the 5‐HT1B receptor), in CHO‐K1 cells transfected with a non‐5‐HT, GPCR. […] For the new assays developed in this study (i.e., 5‐ht1E receptor), the two independent pIC50 determined must be concordant with a 1 log unit interval for the assays to be validated. […]

[2] = biological target: T1, 5-HT1F receptor; experiment: radioligand competition, CHO-K1 membranes; assay type: binding; conditions: radioligand listed in supplement Table S1; unreliable (pIC50 printed as <[…])
Excerpt: radioligand competition, CHO-K1 membranes on 5-HT1F receptor

CNC1CCc2[nH]c3ccc(C(N)=O)cc3c2C1 (racemic) [Frovatriptan racemate]
EC50 [1]: 79.4 nM

N#Cc1ccc(N2CCN(C(=O)COc3ccc4[nH]cc(CCN)c4c3)CC2)cc1 [Donitriptan hydrochloride]
5-HT1F / pKi [2]: 5.18 -log M

CN(C)[C@@H]1CCc2[nH]c3ccc(NC(=O)c4ccc(F)cc4)cc3c2C1 [LY344864 hydrochloride]
EC50 [1]: 1.91 nM

— publication PMC6965684, “Characterization of binding, functional activity, and contractile responses of the selective 5‐HT1F receptor agonist lasmiditan” (British Journal of Pharmacology, 2019)
